# Experimental data as given in patent US8173658B2 (priority 2005, dated 2012).
# pIC50: −log10 of the molar value. Where a name gives a salt, the structure may show the parent alone.
# What was measured:
# [1] = target: α7-subtype of nicotinic receptors (Rattus norvegicus, UniProt Q05941); assay: biochemical; assay type: binding
# Sequence of α7-subtype of nicotinic receptors (Q05941 23-502): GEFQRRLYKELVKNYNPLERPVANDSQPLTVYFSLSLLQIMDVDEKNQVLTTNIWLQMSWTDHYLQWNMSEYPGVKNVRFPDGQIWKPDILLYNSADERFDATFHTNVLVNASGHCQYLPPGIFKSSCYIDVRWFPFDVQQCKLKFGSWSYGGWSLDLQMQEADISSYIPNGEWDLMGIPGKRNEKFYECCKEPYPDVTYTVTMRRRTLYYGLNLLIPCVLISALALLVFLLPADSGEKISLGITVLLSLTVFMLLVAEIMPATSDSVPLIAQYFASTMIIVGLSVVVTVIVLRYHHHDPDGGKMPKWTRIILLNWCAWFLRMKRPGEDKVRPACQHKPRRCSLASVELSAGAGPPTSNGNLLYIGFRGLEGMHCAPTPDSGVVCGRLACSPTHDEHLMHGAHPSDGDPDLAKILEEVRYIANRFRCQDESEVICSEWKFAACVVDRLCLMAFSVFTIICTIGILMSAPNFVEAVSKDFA
structure (smiles),measurement,setting,value
"CN1C2CCCC1CN(c1ccc(-c3ccccc3)nn1)C2 (as salt: fumaric acid salt) [Compound A1, 9-Methyl-3-(6-phenyl-pyridazin-3-yl)-3,9-diaza-bicyclo[3.3.1]nonane]",melting point,,187 to 188 °C
"CCN1C2CCCC1CN(c1ccc(-c3ccccc3)nn1)C2 [Compound D1, 9-Ethyl-3-(6-phenyl-pyridazin-3-yl)-3,9-diaza-bicyclo[3.3.1]nonane]",pIC50,[1],> 6.00
CN1C2CCCC1CN(c1ccc(-c3ccsc3)nn1)C2 [Compound C1],pIC50,[1],> 6.00
"CN1C2CCCC1CN(c1ccc(-c3ccccc3)nn1)C2 [Compound A1, 9-Methyl-3-(6-phenyl-pyridazin-3-yl)-3,9-diaza-bicyclo[3.3.1]nonane]",pIC50,[1],> 6.00
